This is an account of results in ChEMBL document CHEMBL1201862, “PubChem BioAssay data set” (2004).

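Exposure lasted 48 hours, with cells grown in 96-well plates and compounds tested at five concentrations. Abbreviation: GI50, concentration required for 50% inhibition of growth.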 Active and inactive are the calls of the source. No stated cut-off is given here; in the data, active = GI50 up to about 1.1 µM and inactive = higher. Bounds are passed on as bounds.

Test systems include SW-620; OVCAR-8; HOP-62; MDA-MB-435; M14; NCI-H226; U-251; OVCAR-4; ACHN; Malme-3M; MDA-N; NCI-H23; SR; COLO 205; OVCAR-3; Hs-578T; HCT-116; MDA-MB-231; UACC-257; A498.
What all share (experiment): NCI tumour cell line growth inhibition, 48 h

Take `COc1ccc(N2C(=O)CS(=O)(=O)C2c2cccc(Oc3ccccc3)c2)cc1` (stereo not given): the GI50 with SW-620 was 3.27 µM (inactive); with OVCAR-8, 4.08 µM (inactive); in the experiment on HOP-62, 7.53 µM (inactive); with MDA-MB-435, 0.959 µM (active); in the experiment with M14 it was 3.7 µM (inactive); in the experiment on NCI-H226 it was 4.79 µM (inactive). Moreover, the GI50 with U-251 is 4.66 µM (inactive); in the experiment with OVCAR-4, 5.79 µM (inactive); with ACHN it was 4.92 µM (inactive); in the experiment with Malme-3M, 7.74 µM (inactive); in the experiment with MDA-N it was 1.22 µM (inactive); in the experiment on NCI-H23, 4.99 µM (inactive). The GI50 in the experiment with SR was 1.92 µM (inactive); in the experiment on COLO 205, 3.29 µM (inactive); with OVCAR-3, 4.03 µM (inactive); with Hs-578T, 3.78 µM (inactive); with HCT-116, 2.17 µM (inactive); in the experiment with MDA-MB-231, 2.69 µM (inactive). Moreover, in the experiment with UACC-257, the GI50 is 2.74 µM (inactive).

Consider `O=c1[nH]nc(Nc2ccccc2)c2nnn(Cc3ccccc3)c12`, for which the GI50 is > 100 µM (inactive) with SW-620; 19.2 µM (inactive) in the experiment on OVCAR-8; 4.52 µM (inactive) in the experiment with HOP-62; > 100 µM (inactive) in the experiment with MDA-MB-435; > 100 µM (inactive) in the experiment with M14; 20.3 µM (inactive) in the experiment on NCI-H226. The GI50 is 30.7 µM (inactive) in the experiment on U-251; 8.32 µM (inactive) in the experiment with OVCAR-4; > 100 µM (inactive) in the experiment on ACHN; > 100 µM (inactive) in the experiment on A498; > 100 µM (inactive) in the experiment with MDA-N; > 100 µM (inactive) in the experiment with NCI-H23. The GI50 is > 100 µM (inactive) in the experiment with SR; > 100 µM (inactive) with COLO 205; 17.6 µM (inactive) in the experiment with Hs-578T; 83.9 µM (inactive) in the experiment with HCT-116; 71.3 µM (inactive) in the experiment on MDA-MB-231; > 100 µM (inactive) in the experiment with UACC-257.

With `CCCCCCCCCCCCCCCC(=O)OC(COC(C)=O)CO[PH](=O)O` (stereo not given), the GI50 is 33.2 µM (inactive) in the experiment with SW-620; 18.1 µM (inactive) in the experiment on OVCAR-8; 29.5 µM (inactive) in the experiment on MDA-MB-435; 14.7 µM (inactive) in the experiment with M14; 21.6 µM (inactive) with U-251; 58.2 µM (inactive) with OVCAR-4. For the same molecule, the GI50 in the experiment with ACHN was 27.7 µM (inactive); in the experiment on A498 it was > 100 µM (inactive); in the experiment on Malme-3M, 34.8 µM (inactive); in the experiment with MDA-N, 31.3 µM (inactive); in the experiment with SR, 24.9 µM (inactive); with COLO 205, 96.8 µM (inactive). In addition, the GI50 with OVCAR-3 is > 100 µM (inactive); with Hs-578T, 11.8 µM (inactive); in the experiment with MDA-MB-231, 21.7 µM (inactive); in the experiment with UACC-257 it was 34 µM (inactive).

For `O[C@@H]1C[C@H](Cl)c2c(Cl)sc(Cl)c21`, the GI50 with SW-620, in the experiment with OVCAR-8, with HOP-62, in the experiment with MDA-MB-435, with M14 and in the experiment with U-251 was > 100 µM (inactive) each time. The GI50 in the experiment on OVCAR-4, in the experiment with ACHN, with Malme-3M, with MDA-N, in the experiment on NCI-H23 and with SR was > 100 µM (inactive) each time. Also, the GI50 in the experiment with COLO 205, in the experiment with OVCAR-3, with Hs-578T, with HCT-116, with MDA-MB-231 and in the experiment on UACC-257 was > 100 µM (inactive) in each case.

On to `N=C(N)NS(=O)(=O)c1ccc(/N=N/c2c(O)c(C(=O)O)cc3ccccc23)cc1`, for which the GI50 with SW-620, in the experiment on OVCAR-8, in the experiment on HOP-62, in the experiment with MDA-MB-435, with M14 and in the experiment on NCI-H226 was > 100 µM (inactive) each time. Further, the GI50 in the experiment with U-251, with OVCAR-4, in the experiment on ACHN, with Malme-3M, in the experiment with MDA-N and in the experiment on NCI-H23 was > 100 µM (inactive) in each case. For the same molecule, the GI50 in the experiment on SR is > 100 µM (inactive); in the experiment on COLO 205, > 100 µM (inactive); in the experiment with OVCAR-3 it was > 100 µM (inactive); in the experiment on Hs-578T, > 100 µM (inactive); with HCT-116 it was > 100 µM (inactive); with MDA-MB-231 it was 47.4 µM (inactive). In the experiment with UACC-257, the GI50 was > 100 µM (inactive).

Turning to `O/N=C1/CCCc2nonc21`, the GI50 with SW-620, in the experiment with OVCAR-8, with HOP-62, in the experiment with MDA-MB-435, with M14 and with NCI-H226 was > 100 µM (inactive) in each case. In addition, the GI50 in the experiment on U-251, in the experiment with OVCAR-4, in the experiment on ACHN, with Malme-3M, in the experiment on MDA-N and in the experiment with NCI-H23 was > 100 µM (inactive) each time. Moreover, the GI50 with SR, in the experiment on COLO 205, with OVCAR-3, with Hs-578T, with HCT-116 and in the experiment with MDA-MB-231 was > 100 µM (inactive) throughout. In the experiment on UACC-257, the GI50 is > 100 µM (inactive).

Turning to `CCC(CCN)(CCN)[N+](=O)[O-]`, the GI50 in the experiment on SW-620, in the experiment on OVCAR-8, in the experiment with MDA-MB-435, in the experiment with M14, in the experiment on U-251 and with Malme-3M was > 100 µM (inactive) each time. The GI50 in the experiment with MDA-N, in the experiment on SR, in the experiment with COLO 205, in the experiment on Hs-578T, with HCT-116 and with MDA-MB-231 was > 100 µM (inactive) each time. Besides, the GI50 in the experiment with UACC-257 was > 100 µM (inactive).

Turning to `COc1cccc(/C=C2\N=C(c3ccccc3)OC2=O)c1`, the GI50 with SW-620 is > 100 µM (inactive); in the experiment on OVCAR-8, 64.4 µM (inactive); in the experiment on HOP-62, 61.1 µM (inactive); in the experiment with MDA-MB-435 it was > 100 µM (inactive); in the experiment on M14, 81.3 µM (inactive); in the experiment on NCI-H226 it was 37.8 µM (inactive). Further, the GI50 is 63.7 µM (inactive) with U-251; 53.6 µM (inactive) in the experiment with OVCAR-4; > 100 µM (inactive) in the experiment on ACHN; 47.2 µM (inactive) with MDA-N; > 100 µM (inactive) with NCI-H23; 23.1 µM (inactive) in the experiment with SR. Also, the GI50 in the experiment on COLO 205 is 85.1 µM (inactive); with OVCAR-3 it was 63.1 µM (inactive); in the experiment with Hs-578T it was 22.5 µM (inactive); in the experiment with HCT-116 it was > 100 µM (inactive); in the experiment with MDA-MB-231 it was > 100 µM (inactive); in the experiment with UACC-257, > 100 µM (inactive).
